Source: PMC10021052, “Novel multivalent S100A8 inhibitory peptides attenuate tumor progression and metastasis by inhibiting the TLR4-dependent pathway” (Cancer Gene Therapy, 2023)
“Also recorded” adds a separate entry of the source.

Key:
[1] = system: SW480-transplanted xenograft; experiment: Tumor growth in SW480-transplanted xenograft model; format: in vivo, Balb nu/nu mice; conditions: every 3 days; for tumor growth, divalent peptide3A5 monotherapy: SW480 xenograft, various doses, n = 5–6 mice per group; for tumor growth, combination with 5-FU: divalent peptide3A5 5 mg/kg i.p. + 5-FU 20 mg/kg i.p.
Balb nu/nu mice = experiment: Toxicity: biochemical, body weight and hematological tests; format: in vivo, mouse; conditions: Supplementary Table 1
From the text: We then examined the effect of divalent peptide3A5 on tumor growth in vivo.

[2] = system: subcutaneous SW480 tumors; experiment: Immunohistochemistry of subcutaneous SW480 tumors: proliferation and caspase-3; format: in vivo, Balb nu/nu mice; conditions: Supplementary Fig. 2
Method: (§1) To immunostain tumor vasculatures, the cryo sections (6 µm) obtained from frozen primary tumors, were incubated with anti-CD31 (BD Pharmingen, Cat No. 550274), and/or anti-α-SMA-Cy3 (Sigma-Aldrich, Cat No. C6198) followed by AlexaFlour 488-conjugated rat IgG secondary antibodies (Thermo Fisher Scientific) were used to visualize the signals by a confocal microscopy (LSM-710; Carl Zeiss). DAPI staining was used for nuclear staining. For immunohistochemistry, the paraffin-embedded sections were cut 4 µm thick and then deparaffinized, rehydrated and then treated for antigen retrieval. The sections were incubated with the indicated antibody overnight, followed by incubation with ImmPRESS HRP Reagent (Vector, Newark, CA). ImmPACT DAB (Vector) was used for visualization of the signals. The images were captured by BZ-X800 (Keyence, Osaka, Japan).

[3] = system: p38 and p65 (NF-κB) in SW480 cells; experiment: Western blotting, S100A8-induced phosphorylation of p38 and p65 in SW480 cells; format: cell-based; conditions: 2.5 µM pretreatment, human S100A8 30 min
Method: Cells were lysed in lysis buffer (50 mM Tris-HCl [pH 7.4], 150 mM NaCl, 5 mM Na4P2O7, 10 mM β-glycerophosphate, 25 mM NaF, 1 mM EDTA, 1 mM EGTA, 1 mM Na3VO4, and 1% [v/v] Triton X-100) containing the cOmplete^TM Mini protease inhibitor cocktail (Roche Diagnostics, Indianapolis, IN, USA) as described previously. Cell lysates (20 µg) were separated using SDS-PAGE and transferred to an Immun-Blot PVDF membrane (Bio-Rad, Hercules, CA, USA). After blocking with Blocking One or Blocking One-P (Nacalai tesque, Kyoto, Japan), membranes were probed with the indicated antibodies, followed by HRP-labeled anti-rabbit IgG and anti-mouse IgG (GE Healthcare). Signals were visualized using Immobilon Western HRP Substrate (Millipore, Billerica, USA).
Fig. 4 Improvement of competitive inhibition activity by divalent peptide3A5. A The binding capacity was measured at the indicated concentration using an ELISA-based assay. Similar results were obtained in three independent experiments. B SW480 cells were pretreated with 2.5 µM of divalent peptide3A5, and then stimulated with human S100A8 recombinant protein. After 30 min, cell lysates were subjected to western blotting using the indicated antibody. The divalent peptide#3 or peptide3A5 reduced the expression of S100A8-mediated IL-8 (C) and VEGF (D) induction. […]

CD8+ cells = experiment: Intratumoral infiltrating CD8+ cells; format: in vivo, mouse; conditions: Supplementary Fig. 3A
Method: as §1

PKH26-labeled LLC cells = experiment: Lung dissemination of PKH26-labeled LLC cells in TCM-sensitized mice; format: in vivo, C57BL/6J mice; conditions: 10 mg/kg i.p. 1 h before last TCM injection; lungs 16 h after cells; 5–6 mice per group; *P < 0.05 vs control
[4] = system: tumor vasculature of SW480 xenograft; experiment: Tumor vasculature and pericyte coverage (CD31, α-SMA) in SW480 tumors; format: in vivo, Balb nu/nu mice
Method: as §1

[5] = system: tumor cells and macrophages; experiment: Cytokine/chemokine induction in tumor cells and macrophages; format: cell-based; conditions: possible mechanism scheme, Fig. 7I
SW480 cells = experiment: ELISA, IL-8 and VEGF secretion of SW480 cells; format: cell-based, human; conditions: peptide pretreatment, S100A8 24 h, supernatant ELISA; *P < 0.05 vs S100A8
Method: S100A8 recombinant protein was purified as previously described. These proteins were immobilized on Maxisorp plates (Thermo Fisher Scientific, Waltham, MA, USA), followed by blocking with protein-free blocking buffer (Thermo Fisher Scientific). TLR4/MD-2 recombinant proteins with various concentrations of candidate peptides were then added to the indicated S100A8-immobilized ELISA plates for 2 h. The plates were washed, incubated with anti-TLR4 antibody, and HRP-conjugated secondary antibody, followed by the addition of substrate. The reaction was stopped by addition a 2N H2SO4 solution. Absorbance OD450/OD650 was measured using a microplate reader (Thermo Fisher Scientific). Maxisorp plates were also used for peptide coating. After blocking with protein-free blocking buffer, the coated plates were washed, and TLR4/MD-2 recombinant protein (2 µg/ml) was added to each well. The plates were incubated with a TLR4 antibody followed by horseradish peroxidase (HRP)-labeled anti-rabbit IgG. For detection of IL8 and VEGF in culture supernatants, SW480 cells were pretreated with the indicated peptides, and followed by stimulation with S100A8 for 24 h. The amount of interleukin-8 (IL-8) or VEGF in the supernatants were analyzed by ELISA kits (R&D Systems, Mineapolis, MN) according to the manufacturer’s instructions.

[6] = system: MC38 colorectal cancer cells; experiment: Tumor suppression in MC38 model; format: in vivo, mouse; conditions: with anti-PD-1 antibody, Supplementary Fig. 3B
From the text: Because S100A8 inhibitory peptides target S100A8-TLR4/MD-2, which plays a role in innate immunity, the complete functional activities of S100A8 inhibitory peptides are expected to be observed in immunocompetent models. To date, syngeneic models are one of the only options to test physiological interactions between tumors and immune cells. […] LLC cells were identified as non-responders to anti-PD-1/programmed death-ligand 1 (PD-L1) therapy. […] We then examined the effect of divalent peptide3A5 in mouse MC38 colorectal cancer cells used as anti-PD-1 responder cells. We previously confirmed that MC38 endogenously expressed TLR4/MD-2 [8].

FQEFAILVIK [Divalent peptide3A5, divalent peptide of peptide3A5 using Fmoc-Lys (Fmoc)-OH to form two branches]
tumor growth, divalent peptide3A5 monotherapy [1]: inhibits tumor growth
tumor growth, divalent peptide3A5 monotherapy ([1]; listed as divalent peptide3A5): suppressed tumor progression in a dose-dependent manner; also recorded: dose-dependently inhibited tumor growth; also recorded: inhibited tumor growth in vivo
tumor growth, combination with 5-FU [1]: synergistically inhibits tumor growth with 5-FU combination
tumor growth, combination with 5-FU ([1]; listed as divalent peptide3A5): synergistically suppressed tumor growth
tumor growth, combination with bevacizumab ([1]; divalent peptide3A5 5 mg/kg i.p. + bevacizumab 4 mg/kg i.p.): synergistically suppressed tumor growth; also recorded: synergistically inhibited tumor growth with bevacizumab
serum ALT (Balb nu/nu mice; 10 mg/kg): normal
serum AST (Balb nu/nu mice; 10 mg/kg): normal
serum LDH (Balb nu/nu mice; 10 mg/kg): normal
body weight (Balb nu/nu mice): no significant difference
hematological test (Balb nu/nu mice): no significant difference
caspase-3 activation in SW480 tumors [2]: caused caspase-3 activation
tumor cell proliferation in SW480 tumors [2]: suppressed tumor cell proliferation
inhibition of S100A8-induced phosphorylation of p38 [3]: 1.3 fold
inhibition of S100A8-induced phosphorylation of p65 (NF-κB) [3]: 1.7 fold
intratumoral infiltrating CD8+ cells, alone (CD8+ cells; LLC tumor-bearing mice): increased
intratumoral infiltrating CD8+ cells, combination with anti-PD-1 (CD8+ cells; combination with anti-PD-1 antibody): increased
pulmonary recruitment of PKH26-labeled LLC cells / lung metastasis (PKH26-labeled LLC cells): suppresses the pulmonary recruitment of PKH26-labeled LLC cells
pericyte coverage (α-SMA/CD31) ([4]; 5 mg/kg or 10 mg/kg): significantly increased the pericyte coverage
tumor vasculature ([4]; anti-CD31 staining): significantly diminished
induction of cytokines/chemokines [5]: suppress the induction of cytokines/chemokines in both tumor cells and macrophages
S100A8-mediated IL-8 secretion (SW480 cells): suppressed
S100A8-mediated VEGF secretion (SW480 cells): suppressed
MC38 tumor suppression, combination with anti-PD-1 [6]: significantly improved the efficacy of anti-PD-1 therapy; also recorded: increased the efficacy of anti-PD-1 therapy
